According to article PMC9138505, “Small Molecule 20S Proteasome Enhancer Regulates MYC Protein Stability and Exhibits Antitumor Activity in Multiple Myeloma” (Biomedicines, 2022):
Where “and” joins values, the source holds several entries; their conditions need not be identical. Equal values may be shown once.

System: RPMI-8226 cells
Test: Gene expression profiling, NanoString nCounter PanCancer Pathways Panel, ROSALIND analysis
Assay type: cell-based, human
Conditions: RPMI-8226, TCH-165 samples 1-3
Description: RPMI-8226 cells were treated with vehicle or TCH-165 (10 μM) for 4 h. Total RNA was obtained using the mirVana miRNA Isolation Kit, with phenol (Thermofisher Scientific; AM1560; Waltham, MA, USA). Total RNA was quantified by Qubit (Thermofisher Scientific; Q32855; Waltham, MA, USA). and gene expression was evaluated against the nCounter® PanCancer Pathways Panel^TM according to the standard NanoString protocol.
Data were analyzed by ROSALIND® [36] with a hyperscale architecture developed by ROSALIND, Inc. (San Diego, CA, USA). Normalization, fold changes and p-values were calculated using criteria provided by NanoString. ROSALIND follows the nCounter® Advanced Analysis protocol of dividing counts within a lane by the geometric mean of the normalizer probes from the same lane. Housekeeping probes to be used for normalization are selected based on the geNorm algorithm, as implemented in the NormqPCR R library. Fold changes and p-values are calculated using the fast method as described in the nCounter Advanced Analysis 2.0 User Manual. The p-value adjustment is performed using the Benjamini–Hochberg method of estimating false discovery rates (FDR). Clustering of genes for the final heatmap of differentially expressed genes was done using the PAM (Partitioning Around Medoids) method using the fpc R library. Hypergeometric distribution was used to analyze the enrichment of pathways, gene ontology, domain structure and other ontologies. The topGO R library was used to determine local similarities and dependencies between GO terms in order to perform Elim pruning correction. Several database sources were referenced for enrichment analysis, including Interpro [40], NCBI [41], MSigDB [42, 43], REACTOME [44], WikiPathways. Enrichment was calculated relative to a set of background genes relevant to the experiment.

With `CCOC(=O)[C@]1(c2ccccc2)N=C(c2ccc(OC)cc2)N(Cc2ccccc2)[C@@H]1c1ccc(NCc2ccccc2)cc1` [TCH-165] the “ABL1 normalized gene expression” value was 8.417 and 8.4055 and 8.194, the “ACVR1B normalized gene expression” value was 5.827 and 5.592 and 5.805 and the “ACVR2A normalized gene expression” value was 6.629 and 6.427 and 6.2646. For the same compound, the “AKT1 normalized gene expression” value was 9.563 and 9.727 and 9.565, the “AKT2 normalized gene expression” value was 9.573 and 9.603 and 9.59 and the “AKT3 normalized gene expression” value was 5.86 and 5.739 and 5.506. For the same compound, the “ALK normalized gene expression” value was 5.044 and 4.427 and 3.805, the “AMH normalized gene expression” value was 4.488 and 4.27 and 3.291 and the “ANGPT1 normalized gene expression” value was 7.445 and 7.284 and 7.245. For the same compound, the “APC normalized gene expression” value was 7.784 and 7.6193 and 7.522, the “AR normalized gene expression” value was 4.723 and 4.093 and 4.653 and the “ARID1A normalized gene expression” value was 9.641 and 9.688 and 9.749. The “ARNT2 normalized gene expression” value was 5.61 and 5.297 and 5.0068, the “ATM normalized gene expression” value was 8.202 and 8.069 and 8.0531 and the “ATR normalized gene expression” value was 9.3284 and 9.349 and 9.258. For the same compound, the “ATRX normalized gene expression” value was 10.3284 and 10.1666 and 10.2009, the “AXIN1 normalized gene expression” value was 8.978 and 8.914 and 8.769 and the “AXIN2 normalized gene expression” value was 4.308 and 4.3768 and 4.39. The “B2M normalized gene expression” value was 16.2154 and 16.1625 and 16.1882, the “BAD normalized gene expression” value was 9.483 and 9.357 and 9.442 and the “BAIAP3 normalized gene expression” value was 6.488 and 5.962 and 5.926. The “BAMBI normalized gene expression” value was 6.259 and 6.476 and 6.341, the “BAP1 normalized gene expression” value was 8.78 and 8.732 and 8.643 and the “BAX normalized gene expression” value was 9.129 and 9.1412 and 9.225. For the same compound, the “BCL2A1 normalized gene expression” value was 5.758 and 5.547 and 5.712, the “BCL2L1 normalized gene expression” value was 10.1011 and 10.0891 and 10.0785 and the “BCL2 normalized gene expression” value was 9.695 and 9.7506 and 9.653. The “BCOR normalized gene expression” value was 9.105 and 9.1915 and 9.017, the “BDNF normalized gene expression” value was 5.044 and 4.739 and 5.0068 and the “BID normalized gene expression” value was 7.087 and 7.045 and 6.9095. For the same compound, the “BIRC3 normalized gene expression” value was 5.924 and 5.759 and 5.5707, the “BMP2 normalized gene expression” value was 5.259 and 4.7789 and 5.156 and the “BMP4 normalized gene expression” value was 3.86 and 2.891 and 3.0682. For the same compound, the “BMP5 normalized gene expression” value was 5.758 and 5.124 and 4.653, the “BMP6 normalized gene expression” value was 7.818 and 7.896 and 7.955 and the “BMP7 normalized gene expression” value was 8.639 and 8.544 and 8.563. The “BMPR1B normalized gene expression” value was 5.53 and 5.476 and 5.592, the “BNIP3 normalized gene expression” value was 9.175 and 9.079 and 9.173 and the “BRAF normalized gene expression” value was 8.142 and 7.966 and 8.109. The “BRCA1 normalized gene expression” value was 10.3606 and 10.2785 and 10.3058, the “BRCA2 normalized gene expression” value was 8.271 and 8.2205 and 8.187 and the “CACNA1C normalized gene expression” value was 4.649 and 4.029 and 4.291. The “CACNA1D normalized gene expression” value was 7.445 and 7.37 and 7.163, the “CACNA1E normalized gene expression” value was 5.723 and 5.124 and 4.876 and the “CACNA1G normalized gene expression” value was 4.649 and 4.093 and 4.483. For the same compound, the “CACNA1H normalized gene expression” value was 5.259 and 4.3768 and 4.483, the “CACNA2D1 normalized gene expression” value was 4.986 and 5.0613 and 5.2646 and the “CACNB2 normalized gene expression” value was 4.986 and 4.739 and 4.975. For the same compound, the “CACNB3 normalized gene expression” value was 5.308 and 5.154 and 5.592, the “CACNB4 normalized gene expression” value was 5.208 and 4.996 and 4.841 and the “CACNG1 normalized gene expression” value was 4.793 and 4.093 and 4.1271. For the same compound, the “CACNG4 normalized gene expression” value was 6.629 and 6.927 and 6.75, the “CALML3 normalized gene expression” value was 4.986 and 4.476 and 4.528 and the “CALML5 normalized gene expression” value was 4.924 and 3.739 and 3.291. For the same compound, the “CAMK2B normalized gene expression” value was 5.156 and 4.029 and 4.1271, the “CAPN2 normalized gene expression” value was 4.488 and 4.7789 and 4.653 and the “CASP3 normalized gene expression” value was 9.077 and 9.095 and 9.024. For the same compound, the “CASP7 normalized gene expression” value was 7.9 and 7.832 and 7.858, the “CASP8 normalized gene expression” value was 10.5065 and 10.4134 and 10.4228 and the “CASP9 normalized gene expression” value was 7.015 and 7.5638 and 7.592. The “CASP10 normalized gene expression” value was 6.044 and 5.524 and 5.316, the “CBL normalized gene expression” value was 6.94 and 6.657 and 6.805 and the “CBLC normalized gene expression” value was 2.723 and 1.891 and 3.0682. The “CCNA1 normalized gene expression” value was 5.355 and 4.996 and 4.769, the “CCNA2 normalized gene expression” value was 11.2764 and 11.2603 and 11.2666 and the “CCNB1 normalized gene expression” value was 12.2985 and 12.3229 and 12.3132. The “CCND1 normalized gene expression” value was 7.343 and 7.069 and 7.218, the “CCND2 normalized gene expression” value was 11.5762 and 11.5571 and 11.5967 and the “CCND3 normalized gene expression” value was 7.732 and 7.547 and 7.5547. The “CCNE1 normalized gene expression” value was 7.001 and 7.297 and 7.31, the “CCNE2 normalized gene expression” value was 8.015 and 7.524 and 7.638 and the “CCNO normalized gene expression” value was 5.156 and 4.093 and 4.0682. The “CCR7 normalized gene expression” value was 3.723 and 3.817 and 3.483, the “CD14 normalized gene expression” value was 5.53 and 5.402 and 5.437 and the “CD19 normalized gene expression” value was 4.571 and 4.476 and 4.184. For the same compound, the “CD40 normalized gene expression” value was 6.86 and 6.729 and 6.901, the “CDC6 normalized gene expression” value was 11.1861 and 11.1846 and 11.1724 and the “CDC7 normalized gene expression” value was 7.884 and 7.9093 and 7.845. For the same compound, the “CDC14A normalized gene expression” value was 6.308 and 6.012 and 6.038, the “CDC14B normalized gene expression” value was 5.86 and 5.891 and 6.0224 and the “CDC25A normalized gene expression” value was 8.686 and 8.482 and 8.39. For the same compound, the “CDC25B normalized gene expression” value was 9.593 and 9.697 and 9.611, the “CDC25C normalized gene expression” value was 8.406 and 8.5 and 8.492 and the “CDH1 normalized gene expression” value was 5.355 and 5.891 and 5.673. The “CDK2 normalized gene expression” value was 8.944 and 8.829 and 8.792, the “CDK4 normalized gene expression” value was 10.4105 and 10.495 and 10.3803 and the “CDK6 normalized gene expression” value was 9.974 and 9.747 and 9.87. For the same compound, the “CDKN1A normalized gene expression” value was 7.714 and 7.882 and 7.792, the “CDKN1B normalized gene expression” value was 7.835 and 7.891 and 7.722 and the “CDKN1C normalized gene expression” value was 7.81 and 7.789 and 7.581.
